Measured values taken from PMC8325564 (Biochemistry, 2020).
“And” between values parts separate entries of the source, which are not always exact repeats. Equal values may be shown once. Read-outs that look alike come from different tables or passages of the source.

Experiments:
[1] = molecular target: T1, AK3 (Homo sapiens, UniProt Q9UIJ7); test: isothermal titration calorimetry; assay type: binding; details: for ΔHITC0: ITC binding enthalpy; for ΔHITC0 / −TΔSITC0 / ΔGITC0 / Kd: 25 °C; for −TΔSITC0: ITC binding entropy term; for ΔGITC0: ITC binding free energy; for n: ITC binding ratio (stoichiometry); for Kd: ITC
T1 sequence (Q9UIJ7 whole entry): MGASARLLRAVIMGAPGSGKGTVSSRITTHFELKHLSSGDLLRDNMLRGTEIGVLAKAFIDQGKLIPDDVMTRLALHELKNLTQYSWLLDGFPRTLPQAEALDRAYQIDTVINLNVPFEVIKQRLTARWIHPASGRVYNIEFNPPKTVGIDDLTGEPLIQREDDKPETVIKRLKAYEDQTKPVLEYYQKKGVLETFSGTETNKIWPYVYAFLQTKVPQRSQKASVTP

[2] = molecular target: T1, AK3; test: NMR 15N-HSQC chemical shift titration of ligand binding to AK3
[3] = molecular target: T2, AKeco (Escherichia coli, UniProt P69441); test: NMR titration of ATP to AKeco with adenosine binding sites blocked by AP5A; set-up: species or system E. coli
T2 sequence (P69441 whole entry): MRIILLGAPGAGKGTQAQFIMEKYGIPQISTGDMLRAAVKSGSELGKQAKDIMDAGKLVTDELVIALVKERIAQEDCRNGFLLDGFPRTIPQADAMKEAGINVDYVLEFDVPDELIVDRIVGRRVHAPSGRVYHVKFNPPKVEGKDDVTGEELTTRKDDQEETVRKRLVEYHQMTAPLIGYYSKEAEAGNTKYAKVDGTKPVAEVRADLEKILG

[4] = molecular target: human α-synuclein (Homo sapiens, UniProt P37840); test: NMR titration of ATP to α-synuclein; assay type: binding
[5] = molecular target: LcrG (Yersinia pseudotuberculosis serotype I, UniProt P69958); test: biochemical; assay type: binding
Sequence of LcrG (P69958 whole entry, looked up): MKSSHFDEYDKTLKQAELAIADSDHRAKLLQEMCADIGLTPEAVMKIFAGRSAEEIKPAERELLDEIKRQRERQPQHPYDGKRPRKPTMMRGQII

[6] = tested on: AKeco (E. coli adenylate kinase); details: cited from earlier work
[7] = molecular target: T2, AKeco; details: binding to AKeco; cited from earlier work
[8] = molecular target: T1, AK3; test: biochemical; details: KI´ (competitive inhibition), mixed inhibition model, 1.7 mM ATP, AMP variation
[9] = molecular target: T1, AK3; test: coupled enzymatic assay of AK3 activity; assay type: biochemical
[10] = Table 2, average of three technical replicates, pH 7.0

SMILES	ΔHITC0 ([1]; pH 7.0) [kcalmol^−1]	−TΔSITC0 ([1]; pH 7.0) [kcalmol^−1]	ΔGITC0 ([1]; pH 7.0) [kcalmol^−1]	n [1]	Kd ([1]; 30 mM MOPS pH 7.0, 50 mM NaCl)	Kd [1, 10] [µM]	Kd [2] [µM]	Kd [3] [µM]	Kd [4] [µM]	Kd [5] [µM]	Km ([6]; AKeco with ATP) [µM]	difference of the catalytic activity between ATP and GTP ([6]; AKeco) [fold]	Kd [7] [µM]	Ki [8] [µM]	catalytic GTP versus ATP specificity [9] [fold]
Nc1ncnc2c1ncn2[C@@H]1O[C@H](COP(=O)(O)OP(=O)(O)OP(=O)(O)O)[C@@H](O)[C@H]1O [ATP, adenosine triphosphate]	−11.1 ± 0.5	4.4 ± 0.6	−6.7 ± 0.1	0.94 ± 0.015	~13 µM	13 ± 2	9000 ± 3800	12000 ± 2100	13000 ± 2400	12000 ± 800	63 ± 7	60	50	200	–
Nc1nc2c(ncn2[C@@H]2O[C@H](COP(=O)(O)OP(=O)(O)OP(=O)(O)O)[C@@H](O)[C@H]2O)c(=O)[nH]1 [GTP, guanosine triphosphate]	−11.3 ± 0.3	3.5 ± 0.4	−7.8 ± 0.1	1.07 ± 0.025	~2 µM and 2 µM	2.1 ± 0.5	1700 ± 1000	–	–	–	–	–	–	–	~40
Nc1ncnc2c1ncn2[C@@H]1O[C@H](COP(=O)(O)O)[C@@H](O)[C@H]1O [AMP, adenosine monophosphate]	–	–	–	–	–	–	–	–	–	–	–	–	210 ± 66	–	–
